According to ChEMBL document CHEMBL5360524 (Bioorg Med Chem, 2022):

How the values were obtained:
Serratia marcescens [1] = assay: Antibacterial activity against Serratia marcescens assessed as inhibition of bacterial growth measured after 96 hrs relative to control; format: functional
Serratia marcescens [2] = assay: Antibacterial activity against Serratia marcescens assessed as inhibition of bacterial growth measured after 168 hrs relative to control; format: functional

COc1cc(C=O)ccc1O [VANILLIN]
inhibition (INH) (Serratia marcescens [1]): 0.3%
inhibition (INH) (Serratia marcescens [2]): 0.4%
